Test results: publication PMC9687900, “Design, Synthesis, Kinetic Analysis and Pharmacophore-Directed Discovery of 3-Ethylaniline Hybrid Imino-Thiazolidinone as Potential Inhibitor of Carbonic Anhydrase II: An Emerging Biological Target for Treatment of Cancer” (Biomolecules, 2022)

Experiments:
[1] = molecular target: carbonic anhydrase II (CA-II) (Bos taurus, UniProt P00921); test: Carbonic anhydrase assay (p-nitrophenyl acetate hydrolysis); type: biochemical, bovine; details: for IC50: bovine enzyme, mean ± SEM
Description: As mentioned previously, the inhibition of carbonic anhydrase was investigated with adjustments. The method relies on the fact that carbonic anhydrase hydrolyzes p-nitrophenyl acetate into yellow-colored p-nitrophenol, which is then quantified spectrophotometrically. Each well contained 120 µL of a 50 mM Tris-sulfate buffer (pH 7.6, containing 0.1 mM ZnCl2), 20 µL of an inhibitor, and 20 µL of bovine enzyme (50 U). The materials were properly mixed and incubated for 10 min at 25 degrees Celsius. The substrate p-nitrophenyl acetate was synthesized (6 mM stock using <5% acetonitrile in buffer and used fresh each time) and 40 µL was added per well to achieve a concentration of […] per well. The total volume of the reaction was 200 µL. […] Each concentration was assessed in three distinct tests. The IC50 values were calculated with GraphPad Prism 5.0 [38] and nonlinear regression (GraphPad, San Diego, CA USA). (2) Inhibition (%)=B−S/B×100
Here, B and S represent the absorbances of the blank and sample, respectively.

carbonic anhydrase = carbonic anhydrase (Bos taurus, UniProt P00921); test: Kinetic analysis of carbonic anhydrase inhibition (Lineweaver–Burk plots); type: biochemical, bovine
Text: Based on the IC50 values, the most efficacious carbonic anhydrase inhibitor, compound 6e, was designated for kinetic investigation. Lineweaver-–Burk plots and a second plot are depicted in (Figure 3A,B). At various concentrations of the inhibitor and substrate, Lineweaver–Burk plots (plot of 1/V vs. 1/[S]) were generated to determine the kind of inhibition. […] The EI dissociation constant was shown by the second plot (Figure 3B) of the slope vs. the concentration of 6e.
To investigate the kinetic properties of compound 6e, identical experiments to those described in previous study were performed. The compound 6e was selected based on its IC50 value at various concentrations (0.00, 0.78, 1.55, and 3.11 µM, respectively), whereas the substrate concentrations (p-nitrophenyl acetate) were varied from (2, 1, 0.5, 0.25 and 0.125 mM). Other experimental settings mirrored those mentioned in the section under “Carbonic anhydrase assay”. The maximum starting velocity was estimated using the first linear section of absorbance up to 10 min at 1 min intervals. To evaluate the kind of enzyme inhibition, Lineweaver–Burk plots depicting the inverse of velocities (1/V) vs. the inverse of substrate concentration (1/[S] mM^−1) were utilized. […] Version 11 of Microsoft Excel was used to create graphs.

Sequence of carbonic anhydrase II (CA-II) (P00921 whole entry): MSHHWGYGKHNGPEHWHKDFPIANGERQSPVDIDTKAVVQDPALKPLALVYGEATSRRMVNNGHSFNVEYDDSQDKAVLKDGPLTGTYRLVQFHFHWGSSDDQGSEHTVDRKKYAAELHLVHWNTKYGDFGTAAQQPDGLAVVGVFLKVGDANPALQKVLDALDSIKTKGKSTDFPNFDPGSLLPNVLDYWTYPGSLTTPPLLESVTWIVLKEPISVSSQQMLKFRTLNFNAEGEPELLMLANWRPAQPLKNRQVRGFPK
Sequence of carbonic anhydrase (P00921 whole entry): as above

A melting point of 235 to 237 °C and an IC50 [1] of 1.66 ± 0.095 µM were found for `CCOC(=O)C=C1SC(=NC(=O)c2ccccc2C)N(c2cccc(CC)c2)C1=O` [Compound 6a] in this work.

A melting point of 235 to 237 °C and an IC50 [1] of 67.5 ± 2.71 µM were found for `CCOC(=O)/C=C1\S/C(=N\C(=O)c2ccc(Cl)cc2Cl)N(c2cccc(CC)c2)C1=O` [Compound 6b] in this work.

A melting point of 235 to 237 °C and an IC50 [1] of 60.1 ± 1.92 µM were found for `CCOC(=O)/C=C1\S/C(=N\C(=O)c2ccccc2Br)N(c2cccc(CC)c2)C1=O` [Compound 6c] in this work.

A melting point of 235 to 237 °C and an IC50 [1] of 6.5 ± 0.854 µM were found for `CCOC(=O)/C=C1\S/C(=N\C(=O)c2ccc(C)cc2)N(c2cccc(CC)c2)C1=O` [Compound 6d] in this work.

In the case of `CCOC(=O)/C=C1\S/C(=N\C(=O)c2cccc(C)c2)N(c2cccc(CC)c2)C1=O` [Compound 6e], the melting point is reported as 235 to 237 °C, the IC50 [1] is reported as 1.54 ± 0.016 µM and the kind of inhibition (carbonic anhydrase; Lineweaver–Burk plots) is reported as “competitive mechanism”. The Ki (carbonic anhydrase; from slope vs. concentration of 6e, substrate p-nitrophenyl acetate, read-out: Ki (EI dissociation constant)) was 2.2 µM.

A melting point of 235 to 237 °C and an IC50 [1] of 9.52 ± 1.08 µM were found for `CCOC(=O)/C=C1\S/C(=N\C(=O)c2ccccc2)N(c2cccc(CC)c2)C1=O` [Compound 6f] in this work.

A melting point of 235 to 237 °C and an IC50 [1] of 1.78 ± 0.095 µM were found for `CCOC(=O)/C=C1\S/C(=N\C(=O)c2cccc(Cl)c2)N(c2cccc(CC)c2)C1=O` [Compound 6g] in this work.

A melting point of 235 to 237 °C and an IC50 [1] of 11 ± 1.28 µM were found for `CCOC(=O)/C=C1\S/C(=N\C(=O)c2ccccc2F)N(c2cccc(CC)c2)C1=O` [Compound 6h] in this work.

In the case of `CCOC(=O)/C=C1\S/C(=N\C(=O)c2ccccc2Cl)N(c2cccc(CC)c2)C1=O` [Compound 6i], the melting point is reported as 235 to 237 °C, the IC50 [1] is reported as 5.03 ± 0.659 µM and the “activity reduced, fold, in comparison to the inhibitory value of derivative 6g” value ([1]; relative to 6g) is reported as “approximately 2.9 fold”.

A melting point of 235 to 237 °C and an IC50 [1] of 4.45 ± 0.329 µM were found for `CCOC(=O)/C=C1\S/C(=N\C(=O)c2ccc(F)cc2)N(c2cccc(CC)c2)C1=O` [Compound 6j] in this work.
